Laboratory results published in patent publication US20070173462A1, “Treatment of diseases associated with the use of antibiotics” (Optimer Pharmaceuticals, Inc., priority 2004, published 2007).
Values after ≈ are worked out from the molar mass of the structure shown. Like-named read-outs stand apart in the source and are kept apart here.

Tests used:
C. difficile = assay: MIC via agar dilution, 110 genetically distinct clinical isolates of C. difficile; format: cell-based
toxigenic C. difficile = assay: Hamster model of clindamycin-induced Clostridium difficile associated diarrhea/colitis; format: in vivo, Syrian hamsters; conditions: oral treatment for 7 days; untreated infection uniformly fatal between days two and six
Procedure: Animals were treated with two oral doses of clindamycin at 100 mg/kg. Three days after the second dose of clindamycin, they were inoculated with toxigenic C. difficile spores. […] Animals were observed daily for the presence or absence of diarrhea. Necropsies were performed on some animals that died during the experiment, and cecal contents were assayed for C. difficile toxin A. Hamsters were monitored for 20 days, and the cumulative mortality during this period was recorded (FIG. 1).

Cc1ncc([N+](=O)[O-])n1CCO [Metronidazole]
Range (MIC) (C. difficile; 110 clinical isolates, agar dilution): 0.025 to 0.5 µg/mL
MIC (C. difficile; Clostridioides difficile, isolate ORG ID 61 5930, read-out: MIC): 0.25 µg/mL (≈ 1.46 µM)
MIC (C. difficile; Clostridioides difficile, isolate ORG ID 63 6029, read-out: MIC): 0.25 µg/mL (≈ 1.46 µM)
MIC (C. difficile; Clostridioides difficile, isolate ORG ID 64 5940, read-out: MIC): 0.25 µg/mL (≈ 1.46 µM)
MIC (C. difficile; Clostridioides difficile, isolate ORG ID 65 5967, read-out: MIC): 0.25 µg/mL (≈ 1.46 µM)
MIC (C. difficile; Clostridioides difficile, isolate ORG ID 67 6367, read-out: MIC): 0.25 µg/mL (≈ 1.46 µM)
MIC (C. difficile; Clostridioides difficile, isolate ORG ID 69 6370, read-out: MIC): 0.25 µg/mL (≈ 1.46 µM)
MIC (C. difficile; Clostridioides difficile, isolate ORG ID 70 6376, read-out: MIC): 0.25 µg/mL (≈ 1.46 µM)
MIC (C. difficile; Clostridioides difficile, isolate ORG ID 71 6379, read-out: MIC): 0.25 µg/mL (≈ 1.46 µM)
MIC (C. difficile; Clostridioides difficile, isolate ORG ID 72 6380, read-out: MIC): 0.25 µg/mL (≈ 1.46 µM)
MIC (C. difficile; Clostridioides difficile, isolate ORG ID 73 6382, read-out: MIC): 0.25 µg/mL (≈ 1.46 µM)
MIC (C. difficile; Clostridioides difficile, isolate ORG ID 76 6389, read-out: MIC): 0.25 µg/mL (≈ 1.46 µM)
MIC (C. difficile; Clostridioides difficile, isolate ORG ID 78 6392, read-out: MIC): 0.03 µg/mL (≈ 0.175 µM)
MIC (C. difficile; Clostridioides difficile, isolate ORG ID 82 6329, read-out: MIC): 0.03 µg/mL (≈ 0.175 µM)
MIC (C. difficile; Clostridioides difficile, isolate ORG ID 84 6331, read-out: MIC): 0.25 µg/mL (≈ 1.46 µM)
MIC (C. difficile; Clostridioides difficile, isolate ORG ID 88 6335, read-out: MIC): 0.25 µg/mL (≈ 1.46 µM)
MIC (C. difficile; Clostridioides difficile, isolate ORG ID 89 6336, read-out: MIC): 0.5 µg/mL (≈ 2.92 µM)
MIC (C. difficile; Clostridioides difficile, isolate ORG ID 94 6343, read-out: MIC): 0.06 µg/mL (≈ 0.351 µM)
MIC (C. difficile; Clostridioides difficile, isolate ORG ID 98 6350, read-out: MIC): 0.5 µg/mL (≈ 2.92 µM)
MIC (C. difficile; Clostridioides difficile, isolate ORG ID 100 6353, read-out: MIC): 0.25 µg/mL (≈ 1.46 µM)
MIC (C. difficile; Clostridioides difficile, isolate ORG ID 101 6354, read-out: MIC): 0.06 µg/mL (≈ 0.351 µM)
MIC (C. difficile; Clostridioides difficile, isolate ORG ID 104 6060, read-out: MIC): 0.25 µg/mL (≈ 1.46 µM)
MIC (C. difficile; Clostridioides difficile, isolate ORG ID 106 6078, read-out: MIC): 0.25 µg/mL (≈ 1.46 µM)
MIC (C. difficile; Clostridioides difficile, isolate ORG ID 115 5985, read-out: MIC): 0.25 µg/mL (≈ 1.46 µM)
MIC (C. difficile; Clostridioides difficile, isolate ORG ID 120 6057, read-out: MIC): 0.25 µg/mL (≈ 1.46 µM)
MIC (C. difficile; Clostridioides difficile, isolate ORG ID 121 6072, read-out: MIC): 0.25 µg/mL (≈ 1.46 µM)
MIC (C. difficile; Clostridioides difficile, isolate ORG ID 122 6111, read-out: MIC): 0.25 µg/mL (≈ 1.46 µM)
MIC (C. difficile; Clostridioides difficile, isolate ORG ID A1 1535, read-out: MIC): 0.25 µg/mL (≈ 1.46 µM)
MIC (C. difficile; Clostridioides difficile, isolate ORG ID AH1 3430, read-out: MIC): 0.25 µg/mL (≈ 1.46 µM)
MIC (C. difficile; Clostridioides difficile, isolate ORG ID BE1 4307, read-out: MIC): 0.25 µg/mL (≈ 1.46 µM)
MIC (C. difficile; Clostridioides difficile, isolate ORG ID BH1 4506, read-out: MIC): 0.06 µg/mL (≈ 0.351 µM)
MIC (C. difficile; Clostridioides difficile, isolate ORG ID BN1 1322, read-out: MIC): 0.25 µg/mL (≈ 1.46 µM)
MIC (C. difficile; Clostridioides difficile, isolate ORG ID BV1 1183, read-out: MIC): 0.25 µg/mL (≈ 1.46 µM)
MIC (C. difficile; Clostridioides difficile, isolate ORG ID BX1 4271, read-out: MIC): 0.25 µg/mL (≈ 1.46 µM)
MIC (C. difficile; Clostridioides difficile, isolate ORG ID CJ1 893, read-out: MIC): 0.025 µg/mL (≈ 0.146 µM)
MIC (C. difficile; Clostridioides difficile, isolate ORG ID CN1 667, read-out: MIC): 0.25 µg/mL (≈ 1.46 µM)
MIC (C. difficile; Clostridioides difficile, isolate ORG ID CP1 5491, read-out: MIC): 0.25 µg/mL (≈ 1.46 µM)
MIC (C. difficile; Clostridioides difficile, isolate ORG ID D1 1360, read-out: MIC): 0.25 µg/mL (≈ 1.46 µM)
MIC (C. difficile; Clostridioides difficile, isolate ORG ID J1 5971, read-out: MIC): 0.25 µg/mL (≈ 1.46 µM)
MIC (C. difficile; Clostridioides difficile, isolate ORG ID K1 4305, read-out: MIC): 0.25 µg/mL (≈ 1.46 µM)
MIC (C. difficile; Clostridioides difficile, isolate ORG ID R6 6015, read-out: MIC): 0.25 µg/mL (≈ 1.46 µM)
MIC (C. difficile; Clostridioides difficile, isolate ORG ID W1 3931, read-out: MIC): 0.5 µg/mL (≈ 2.92 µM)
MIC90 (C. difficile; Clostridioides difficile, 110 clinical isolates, agar dilution): 0.25 µg/mL (≈ 1.46 µM)
MIC (C. difficile; Clostridioides difficile, 110 clinical isolates, agar dilution, read-out: Geometric Mean (MIC)): 0.15 µg/mL (≈ 0.876 µM)
protection from infection (cumulative mortality over 20 days) (toxigenic C. difficile): protected the animals from infection
